# Laboratory results: patent publication US8173710B2, “Bicyclic sphingosine 1-phosphate analogs” (University of Virginia Patent Foundation, priority 2006, dated 2012)
# Tests used:
# [1] = Heart rate assay; type: in vivo; details: IV dosing, 3 mg/kg, 1 hour post dosing, vehicle 2% cyclodextrin, conscious mice, FIG. 11
# Experimental: Mice were dosed with compound VIII, FTY720 (intravenous, 3 mg/kg) or vehicle (2% hydroxypropyl beta-cyclodextrin) and heart rate measured at 1 hour post dosing. Heart rate was captured in unrestrained, conscious animals using the ECGenie™ system. The results are illustrated in FIG. 11.
# [2] = biological target: T1, human S1P1 receptor (Homo sapiens, UniProt P21453); test: GTPγS-35 binding assay (broken cell), S1P1; type: biochemical; details: FIG. 7, compared with S1P
# T1 construct: expressed in transfected cells; host or cells: HEK293T cells (crude microsomes)
# Experimental: (§1) This assay illustrates agonist activation of G protein coupled receptors (GPCRs) in isolation. The assay forces expression concomitantly of a recombinant GPCR (e.g., the S1P1-5 receptor) and each of the three subunits (typically, α-2, β-1, or γ-2) of a heterotrimeric G protein in a HEK293T cell by transfecting the cell with four plasmid DNAs encoding the respective proteins. About 60 hours after transfection the cells are harvested, opened, and the nucleus discarded. The crude microsome is prepared from the remainder. Agonist (e.g., S1P) stimulation of the receptor-G protein complex on the microsomes results in the exchange of GTP for GDP on the α-subunit in a dose-dependent manner. The GTP-bound a-subunit is detected using a GTP analog (GTPγS-35), which is a radionuclide (sulfur-35) labeled phosphothioate that is not hydrolyzed to GDP. The microsomes with the adherent G proteins are collected by filtration and the bound GTPγS-35 quantified in a liquid scintillation counter. The assay yields relative potency (EC50 values) and maximum effect (efficacy, Emaxa Antagonist activity is detected as rightward shifts in the agonist dose-response curve in the presence of a fixed amount of antagonist. If the antagonist behaves competitively, the affinity of the receptor/antagonist pair (K1) can be determined. […]
# [3] = biological target: T2, S1P3 receptor (Homo sapiens, UniProt Q99500); test: GTPγS-35 binding assay (broken cell), S1P3; type: biochemical
# T2 construct: expressed in transfected cells; host or cells: HEK293T cells (crude microsomes)
# Experimental: as §1
# T2 sequence (Q99500 whole entry): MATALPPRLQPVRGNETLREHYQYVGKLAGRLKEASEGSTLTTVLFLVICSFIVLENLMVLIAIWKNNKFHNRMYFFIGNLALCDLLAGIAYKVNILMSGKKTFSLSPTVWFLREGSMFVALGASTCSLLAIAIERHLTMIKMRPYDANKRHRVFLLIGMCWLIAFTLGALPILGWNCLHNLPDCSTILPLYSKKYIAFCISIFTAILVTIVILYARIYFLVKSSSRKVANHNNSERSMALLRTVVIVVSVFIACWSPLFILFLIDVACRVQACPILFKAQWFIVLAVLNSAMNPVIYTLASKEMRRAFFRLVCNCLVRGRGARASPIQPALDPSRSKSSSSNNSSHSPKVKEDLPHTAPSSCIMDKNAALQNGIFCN
# T2 sequence (P04899 whole entry partner): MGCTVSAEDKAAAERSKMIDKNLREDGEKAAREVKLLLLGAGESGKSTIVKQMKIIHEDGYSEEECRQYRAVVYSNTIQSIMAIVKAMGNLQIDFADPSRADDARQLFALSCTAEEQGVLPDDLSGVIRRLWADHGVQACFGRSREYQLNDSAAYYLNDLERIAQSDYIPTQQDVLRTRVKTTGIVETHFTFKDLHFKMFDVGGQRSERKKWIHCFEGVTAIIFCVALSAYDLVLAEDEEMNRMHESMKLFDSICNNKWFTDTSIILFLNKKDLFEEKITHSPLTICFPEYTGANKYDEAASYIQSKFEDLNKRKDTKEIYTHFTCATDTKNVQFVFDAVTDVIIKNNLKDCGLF
# T2 sequence (P62873 whole entry partner): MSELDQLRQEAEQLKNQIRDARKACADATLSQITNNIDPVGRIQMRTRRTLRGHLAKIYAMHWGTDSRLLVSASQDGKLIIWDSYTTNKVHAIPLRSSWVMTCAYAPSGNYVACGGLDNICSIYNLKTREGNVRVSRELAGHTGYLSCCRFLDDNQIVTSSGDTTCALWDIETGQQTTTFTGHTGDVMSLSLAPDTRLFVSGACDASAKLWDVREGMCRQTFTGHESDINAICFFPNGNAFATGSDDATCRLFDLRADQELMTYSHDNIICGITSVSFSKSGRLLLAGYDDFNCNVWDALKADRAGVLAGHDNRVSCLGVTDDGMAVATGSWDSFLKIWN
# T2 sequence (P59768 2-68 partner limits assumed): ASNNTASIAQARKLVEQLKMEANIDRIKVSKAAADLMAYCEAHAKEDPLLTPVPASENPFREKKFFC
# T1 sequence (P21453 whole entry): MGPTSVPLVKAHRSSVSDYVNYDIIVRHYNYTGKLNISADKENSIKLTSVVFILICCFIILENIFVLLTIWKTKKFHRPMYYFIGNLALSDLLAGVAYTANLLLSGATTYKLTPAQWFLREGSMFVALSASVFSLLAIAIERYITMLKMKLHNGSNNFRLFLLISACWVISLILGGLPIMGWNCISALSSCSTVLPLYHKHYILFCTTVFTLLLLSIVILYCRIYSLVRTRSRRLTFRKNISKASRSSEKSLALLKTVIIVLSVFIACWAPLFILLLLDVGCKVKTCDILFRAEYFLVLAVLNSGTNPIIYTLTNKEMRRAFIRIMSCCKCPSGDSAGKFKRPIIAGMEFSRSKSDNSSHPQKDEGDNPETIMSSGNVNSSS
# T1 sequence (P04899 whole entry partner): as the sequence (P04899 whole entry partner) above
# T1 sequence (P62873 whole entry partner): as the sequence (P62873 whole entry partner) above
# T1 sequence (P59768 2-68 partner limits assumed): as the sequence (P59768 2-68 partner limits assumed) above
potency at S1P1 relative to S1P [2],"agonist activity at the S1P3 receptor ([3]; FIG. 8, XXVI and XXVII tested as mixture of phosphorylated forms of compound VIII)",potency at S1P3 relative to S1P ([3]; compared with S1P),SMILES,effect on the heart rate of mice [1]
–,–,–,"CCCCCCCCc1ccc2c(c1)CCC(C(N)(CO)CO)C2 (stereo not shown) [VIII, 2-Amino-2-(6-octyl-1,2,3,4-tetrahydro-naphthalen-2-yl)-propane-1,3-diol]",no effect
more potent,"low potency, partial agonists",less potent,"CCCCCCCCc1ccc2c(c1)CCC(C(N)(COP(=O)(O)O)COP(=O)(O)O)C2 (stereo not shown) [XXVII, Phosphoric acid mono-[2-amino-2-(6-octyl-1,2,3,4-tetrahydro-naphthalen-2-yl)-3-phosphonooxypropyl] ester]",–
